{"source": "patent US20230065462A1", "about": "“Pharmaceutical composition and use thereof” (HENAN TAIFENG BIOLOGICAL TECHNOLOGY CO., LTD., priority 2020, published 2023)", "type_in_all_cases": "in vivo, Leghorn chickens", "key": {"cockscomb capillaries": {"tested_on": "cockscomb capillaries", "test": "Cockscomb hemangioma model: number of capillaries (HE staining and computer image analysis)", "details": "x±s, high-power field", "protocol": "(§1) The experimental cocks were anesthetized through intramuscular injection of 0.1 mg/kg Sumianxin, fixed, and cleaned, and after being disinfected, each cockscomb was marked with gentian violet to form 4 circles with a diameter of 1 cm in turn on one side of the each cockscomb from front to back, and was injected at the center of each circle: the blank control group was injected with 0.5 mL of solvent (water for injection), the positive control group was injected with 0.5 mL of 5 mg/ml lauromacrogol injection, and the groups A-I were injected with 0.5 mL of the corresponding 13.2 mg/mL injection of compositions 1-9, respectively, and the standard is that the surface tissue of the cockscomb turns white and produces a skin hill. As the thickness of the cockscomb was 8˜10 mm, only one side of the cockscomb is injected subcutaneously, and the non-injected side of the contralateral side was used as the self-control group. After the injection, the cocks were continued to raise under uniform conditions, eaten and drunk freely until the material was obtained.\n(§2) The tissues at the injection site were taken, fixed in 10% neutral formaldehyde fixative for 48 hours, embedded in paraffin, sectioned, stained with conventional HE, and examined by light microscope at 3 days, 7 days, 14 days, and 28 days after drug injection, respectively.\nThe processed tissue sections were sorted according to the number, and observed through an optical microscope. The changes in the number of blood vessels in each tissue section were observed under the adjusted high-power field of view (DABX400), and the changes in the number of apoptosis were observed by the TUNEL method. Five fields of view were randomly selected under the high-power field of view, and the image was analyzed using Tmage Proplus 6.0 software.\nAll data were processed with SPSS statistical software, and the data were expressed as x±s."}, "[1]": {"tested_on": "vascular endothelial cells", "test": "Cockscomb hemangioma model: cell apoptosis detection (TUNEL method and computer image analysis)", "details": "x±s, high-power field", "protocol": "as §1\nThe TUNEL method is used for cell apoptosis detection including cell detection and tissue specimen detection. The principle is that deoxyuridine triphosphate is connected to the 3′-OH end of broken DNA in apoptotic cells by the catalysis of deoxyribonucleotide terminal transferase, and then is also bound to the luciferin antibody linked with horseradish peroxidase, and thus, the apoptotic cells can be accurately positioned through the bond of the luciferin antibody with the horseradish peroxidase substrate diaminobenzidine. […]"}, "cockscomb [2]": {"tested_on": "cockscomb", "test": "Cockscomb hemangioma model: general (naked eye) observation of cockscomb after drug injection", "text": "Animals: 88 Leghorn chickens of clean grade and raised under uniform feeding conditions in the same batch, male, weighing 1000 1500 g, 10 12 weeks old, provided by the Animal Experimental Center of Qinglongshan Animal Breeding Farm in Jiangning, Nanjing. The cockscomb is required to be plump, smooth, ruddy, and no lesion. All animals are reared in the same laboratory according to the requirements of clean grade, and they can eat and drink freely. The experimental process complies with the People's Republic of China “Regulations on the Management of Laboratory Animals” and ethical requirements. Test drugs: each component of the drug composition is commercially available. Citric acid, paeoniflorin, and gallic acid are mixed at the ratio described in the following table to obtain com[…]-I, respectively. Then, each composition was dissolved in water for injection to obtain an injection with a concentration of 13.2 mg/mL. The positive control group used lauromacrogol parenteral solution (Specification: 10 mL: 100 mg, Shaanxi Tianyu Pharmaceutical Co., Ltd.) as a sclerosing agent, and was prepared into a 5 mg/ml injection with water for injection before use. The clean grade of male Leghorn chickens were selected and randomly divided into a blank control group, a positive control group and a pharmaceutical composition groups A-I, a total of 11 groups, each with 8 chickens. Four points were selected for the cockscomb of each cock as the drug injection point, and the cockscomb was observed, photographed, and sampled before the experiment and 3 days, 7 days, 14 days, and 28 days after the experiment. […] As the thickness of the cockscomb was 8 10 mm, only one side of the cockscomb is injected subcutaneously, and the non-injected side of the contralateral side was used as the self-control group. After the injection, the cocks were continued to raise under uniform conditions, eaten and drunk freely until the material was obtained. Before drug injection, the general condition of the cockscomb, including shape, color, thickness, surface condition, etc., were observed and recorded with photos. After the drug injection, the observation was performed every day, and included: the color change of the cockscomb, whether the epidermis has white spots, whether the edema occurs, whether tissue necrosis occurs on the surface, whether scab occurs, whether scar occurs, and whether the scab falls off, and the time distribution of fall off. The observation were recorded by taking photos at four time points, i.e., 3 days, 7 days, 14 days, and 28 days after the drug injection, and meanwhile, the experimental cock was anesthetized and the tissues at the injection site were taken and examined by light microscope."}, "cockscomb [3]": {"tested_on": "cockscomb", "test": "Cockscomb hemangioma model: HE staining, histopathological changes under light microscope", "text": "The clean grade of male Leghorn chickens were selected and randomly divided into a blank control group, a positive control group and a pharmaceutical composition groups A-I, a total of 11 groups, each with 8 chickens. Four points were selected for the cockscomb of each cock as the drug injection point, and the cockscomb was observed, photographed, and sampled before the experiment and 3 days, 7 days, 14 days, and 28 days after the experiment.\nas §1, §2"}}, "note": "Entries after “also recorded” stand apart in the source; their conditions may differ.", "data": [{"substance": "lauromacrogol [Positive control group]", "values": [{"measurement": "number of capillaries", "setting": "cockscomb capillaries; 3 d", "result": "47.05 ± 4.12"}, {"measurement": "number of capillaries", "setting": "cockscomb capillaries; 7 d", "result": "41.89 ± 4.25"}, {"measurement": "number of capillaries", "setting": "cockscomb capillaries; 14 d", "result": "36.59 ± 3.62"}, {"measurement": "number of capillaries", "setting": "cockscomb capillaries; 28 d", "result": "24.68 ± 4.33"}, {"measurement": "number of apoptotic cells", "setting": "[1]; 3 d", "result": "21.02 ± 3.56"}, {"measurement": "number of apoptotic cells", "setting": "[1]; 7 d", "result": "36.78 ± 3.87"}, {"measurement": "number of apoptotic cells", "setting": "[1]; 14 d", "result": "54.68 ± 3.65"}, {"measurement": "number of apoptotic cells", "setting": "[1]; 28 d", "result": "68.62 ± 3.27"}, {"measurement": "Cockscomb edema after drug injection", "setting": "cockscomb [2]; 0 d", "result": "no"}, {"measurement": "The color and scab at the cockscomb injection site after drug injection", "setting": "cockscomb [2]; 0 d", "result": "white skin hills"}, {"measurement": "Cockscomb appearance after drug injection", "setting": "cockscomb [2]; 0 d, 0.5 mL subcutaneous injection per point", "result": "normal"}, {"measurement": "Cockscomb appearance after drug injection", "setting": "cockscomb [2]; 3 d", "result": "normal"}, {"measurement": "Cockscomb edema after drug injection", "setting": "cockscomb [2]; 3 d", "result": "mild edema"}, {"measurement": "The color and scab at the cockscomb injection site after drug injection", "setting": "cockscomb [2]; 3 d", "result": "dark red"}, {"measurement": "Cockscomb appearance after drug injection", "setting": "cockscomb [2]; 7 d", "result": "normal"}, {"measurement": "Cockscomb edema after drug injection", "setting": "cockscomb [2]; 7 d", "result": "the edema decreased"}, {"measurement": "The color and scab at the cockscomb injection site after drug injection", "setting": "cockscomb [2]; 7 d", "result": "light yellow"}, {"measurement": "Cockscomb appearance after drug injection", "setting": "cockscomb [2]; 14 d", "result": "normal"}, {"measurement": "Cockscomb edema after drug injection", "setting": "cockscomb [2]; 14 d", "result": "the edema gradually decreased; also recorded: faintly edema"}, {"measurement": "The color and scab at the cockscomb injection site after drug injection", "setting": "cockscomb [2]; 14 d", "result": "the center part of the drug injection site had a black scab, the surrounding part was yellow"}, {"measurement": "Cockscomb appearance after drug injection", "setting": "cockscomb [2]; 28 d", "result": "normal"}, {"measurement": "Cockscomb edema after drug injection", "setting": "cockscomb [2]; 28 d", "result": "with no edema and with scar"}, {"measurement": "The color and scab at the cockscomb injection site after drug injection", "setting": "cockscomb [2]; 28 d", "result": "the black scab at the injection site fell off, became light yellow"}, {"measurement": "appearance of the cockscomb", "setting": "cockscomb [2]; throughout the experiment", "result": "remained normal"}, {"measurement": "The internal and external conditions of subcutaneous capillary lumens of cockscomb after drug injection", "setting": "cockscomb [3]; 3 d", "result": "inflammatory cells in the peripheral tissues were infiltrated, interstitial edema was obvious, and a small amount of collagen fibers proliferated"}, {"measurement": "The morphology and number of subcutaneous capillaries of cockscomb after drug injection", "setting": "cockscomb [3]; 3 d", "result": "subcutaneous capillaries were destroyed and fused"}, {"measurement": "The internal and external conditions of subcutaneous capillary lumens of cockscomb after drug injection", "setting": "cockscomb [3]; 7 d", "result": "collagen fibers were further proliferated, and inflammatory cells infiltrated and interstitial edema decreased"}, {"measurement": "The morphology and number of subcutaneous capillaries of cockscomb after drug injection", "setting": "cockscomb [3]; 7 d", "result": "capillaries were further decreased"}, {"measurement": "The internal and external conditions of subcutaneous capillary lumens of cockscomb after drug injection", "setting": "cockscomb [3]; 14 d", "result": "collagen fibers continued to proliferate"}, {"measurement": "The morphology and number of subcutaneous capillaries of cockscomb after drug injection", "setting": "cockscomb [3]; 14 d", "result": "the number of blood vessels continued to decrease"}, {"measurement": "The internal and external conditions of subcutaneous capillary lumens of cockscomb after drug injection", "setting": "cockscomb [3]; 28 d", "result": "filled with a large number of collagen fibers"}, {"measurement": "The morphology and number of subcutaneous capillaries of cockscomb after drug injection", "setting": "cockscomb [3]; 28 d", "result": "the capillaries were significantly reduced"}]}]}
